Source: patent US20230348369A1 (Cytokinetics, Inc., priority 2020, published 2023)
Read-outs that look alike come from different tables or passages of the source.

Experiments:
human NAMPT = human NAMPT (Homo sapiens, UniProt P43490); assay: Human recombinant enzyme assay (NMN fluorescence biochemical assay, activation of NAMPT)
Procedure, shortened: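 NMN production is detected fluorometrically (Ex 355/Em 460 nm) 40 min after acetophenone, KOH and formic acid derivatization. Reactions ran 60 min at ambient temperature: 6 nM human NAMPT, nicotinamide 150 μM, PRPP 20 μM, ATP 2.5 mM, buffered at pH 7.2 with 50 mM HEPES plus DTT, CHAPS, NaCl and 100 mM MgCl2.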

endogenous NAMPT = molecular target: T1, endogenous NAMPT (Homo sapiens, UniProt P43490); assay: Cellular NAD+ modulation assay in neuroblastoma SH-SY5Y cells; assay type: cell-based
T1 construct: stimulate the endogenous NAMPT in a native cellular environment; endogenous in cells; host or cells: SH-SY5Y neuroblastoma cells
Method: The compounds described herein were also assayed for their ability to stimulate the endogenous NAMPT in a native cellular environment in the cellular NAD+ modulation assay, which measures the ability of the compound to modulate cellular NAD levels. Increased levels of NAD are expected by compounds that permeate the cells and activate the catalytic activity of the endogenous NAMPT.
Neuroblastoma SH-SY5Y cells were grown in 1:1 mixture of Eagle's Minimum Essential Medium and F12 Medium, along with 10% fetal bovine serum, in a humidified incubator with an atmosphere of 95% air and 5% CO2 at 37° C. The assays were initiated by plating 20 μL of SH-SY5Y cells in culture medium with 0.1% fetal bovine serum, at a density of 5000 cells per well to a 384-well Corning™ BioCoat™ Poly-D-Lysine Multiwell Plates. The plates were incubated in the 37° C. incubators for a period of 5 hours. Compounds in DMSO were added to the plates in a volume of 120 nL using the Labcyte Echo Liquid Handlers. […] The plates are then incubated for 40 hours. 30 μL of a readout-solution containing 0.2 U/mL Diaphorase enzyme, 40 uM resazurin, 10 uM FMN, 0.8 U/mL Alcohol dehydrogenase, 3% ethanol, 0.4 mg/mL bovine serum albumin, 0.2% Triton X-100 in 100 mM Tris-HCl, 30 mM EDTA, pH 8.4. The plates were read for fluorescence (Excitation/Emission=540 nm/590 nm) using an EnVision plate reader after 60 mins of incubation at ambient temperature.

[1] = Table A, human recombinant NAMPT, NMN formation, 60 min
[2] = Table A, human recombinant NAMPT, NMN formation, 60 min, read-out: EC50 Human
[3] = Table B, SH-SY5Y cells, cellular NAD levels, doxorubicin, 40 hours
[4] = Table B, SH-SY5Y cells, cellular NAD levels, doxorubicin, 40 hours, read-out: EC50

T1 sequence (P43490 whole entry): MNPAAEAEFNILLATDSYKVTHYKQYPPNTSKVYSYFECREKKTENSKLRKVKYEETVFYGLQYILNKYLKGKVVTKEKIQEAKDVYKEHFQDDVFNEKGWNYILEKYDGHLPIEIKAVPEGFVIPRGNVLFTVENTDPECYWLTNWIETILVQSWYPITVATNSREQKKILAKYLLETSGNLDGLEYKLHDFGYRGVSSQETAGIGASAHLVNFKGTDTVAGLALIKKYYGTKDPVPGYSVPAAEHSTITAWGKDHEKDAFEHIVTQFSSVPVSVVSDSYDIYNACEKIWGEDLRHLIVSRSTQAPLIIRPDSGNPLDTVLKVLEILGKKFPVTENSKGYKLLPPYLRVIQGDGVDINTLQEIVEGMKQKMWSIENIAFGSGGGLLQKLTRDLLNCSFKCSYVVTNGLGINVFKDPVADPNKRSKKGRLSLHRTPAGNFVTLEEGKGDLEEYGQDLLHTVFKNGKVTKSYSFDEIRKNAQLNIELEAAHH
Sequence of human NAMPT (P43490 whole entry): as above

Row | Compound | AC1.4 Human (human NAMPT; [1]) [µM] | EC50 (human NAMPT; [2]) [nM] | AC0.3 (endogenous NAMPT; [3]) [µM] | EC50 (endogenous NAMPT; [4]) [nM] | EC50 (human NAMPT) [nM] | EC50 (endogenous NAMPT) [nM]
1 | Cc1ccc(C(=O)N2CC[C@]3(C2)C[C@H](NC(=O)NCc2ccc(Cl)cc2)C3)cc1 [Compound 164, 1-(4-chlorobenzyl)-3-((2s,4r)-6-(4-methylbenzoyl)-6-azaspiro[3.4]octan-2-yl)urea] | 12.6 | 40100 | 11.6 | 12900 |  | 
2 | O=C(NCCOCCOc1ccccc1)NCc1ccc(Cl)cc1 [Compound 196, 1-(4-chlorobenzyl)-3-(2-(2-phenoxyethoxy)ethyl)urea] | 3.7 | 25500 | 1.0 | 3300 |  | 
3 | Cc1cccc(N2CC[C@]3(C2)C[C@H](NC(=O)NCc2ccc(Cl)cc2)C3)n1 [Compound 199, 1-(4-chlorobenzyl)-3-((2s,4r)-6-(6-methylpyridin-2-yl)-6-azaspiro[3.4]octan-2-yl)urea] | 10.6 | 42200 | 2.0 |  |  | 
4 | CN(C(=O)[C@H]1C[C@@]2(C[C@H](NC(=O)NCc3ccc(Cl)cc3)C2)C1)C1CCOC1 (stereo partly drawn) [Compound 202, (2S,4s,6S)-6-(3-(4-chlorobenzyl)ureido)-N-methyl-N-((R)-tetrahydrofuran-3-yl)spiro[3.3]heptane-2-carboxamide] | 0.9 | 2200 | 0.5 | 600 |  | 
5 | Cc1ncccc1C(=O)NC1CC2(CC(NC(=O)NCc3ccc(Cl)cc3)C2)C1 (centres unmarked) [Compound 203, N-(6-(3-(4-chlorobenzyl)ureido)spiro[3.3]heptan-2-yl)-2-methylnicotinamide] | 8.2 | 34300 | 8.9 | 10000 |  | 
6 | Cc1ccc(C(=O)N2CC3(CC(NC(=O)NCc4ccc(Cl)cc4)C3)C2)cc1 [Compound 206, 1-(4-chlorobenzyl)-3-(2-(4-methylbenzoyl)-2-azaspiro[3.3]heptan-6-yl)urea] | 2.2 | 4300 | 0.2 | 500 |  | 
7 | Cc1ccc(C(=O)N2CC3(CC(NC(=O)NCc4ccncc4)C3)C2)cc1 [Compound 210, 1-(2-(4-methylbenzoyl)-2-azaspiro[3.3]heptan-6-yl)-3-(pyridin-4-ylmethyl)urea] | 1.9 | 49900 | 9.7 | 9000 |  | 
8 | Cc1ccc(C(=O)N2CC3(CC(NC(=O)NCc4ccc(C(N)=O)cc4)C3)C2)cc1 [Compound 211, 4-((3-(2-(4-methylbenzoyl)-2-azaspiro[3.3]heptan-6-yl)ureido)methyl)benzamide] | 0.5 | 27800 | >20.1 |  |  | 
9 | N#Cc1ccccc1C(=O)NC1CC2(CC(NC(=O)NCc3ccc(Cl)cc3)C2)C1 (centres unmarked) [Compound 212, N-(6-(3-(4-chlorobenzyl)ureido)spiro[3.3]heptan-2-yl)-2-cyanobenzamide] | 7.2 |  | 0.3 |  | 6000 | 100
10 | Cc1ccc(C(=O)N2CC3(CC(NC(=O)NCc4ccc(=O)[nH]c4)C3)C2)cc1 [Compound 214, 1-(2-(4-methylbenzoyl)-2-azaspiro[3.3]heptan-6-yl)-3-((6-oxo-1,6-dihydropyridin-3-yl)methyl)urea] | 10.5 | 36700 | >20.1 |  |  | 
11 | COc1ccc(CNC(=O)N[C@H]2C[C@]3(C2)C[C@H](C(=O)N2CCCc4ccccc42)C3)cc1 (some centres unmarked) [Compound 229, 1-(4-methoxy-benzyl)-3-(6-(1,2,3,4-tetrahydro-quinoline-1-carbonyl)spiro[3.3]heptan-2-yl)urea] |  | 1200 |  | 200 |  | 
12 | Cc1ccc(C(=O)NC[C@H]2C[C@]3(C2)C[C@@H](NC(=O)NCc2ccc(Cl)cc2)C3)cn1 (some centres unmarked) [Compound 249, N-((6-(3-(4-chlorobenzyl)ureido)spiro[3.3]heptan-2-yl)methyl)-6-methyl-nicotinamide] |  | 2700 |  | 900 |  | 
13 | O=C(NCCCCC(=O)N1CCCc2ccccc21)NCc1ccc(Cl)cc1 [Compound 256, 1-(4-chlorobenzyl)-3-(5-(3,4-dihydroquinolin-1(2H)-yl)-5-oxopentyl)urea] | 1.0 | 2000 | 0.3 | 300 |  | 
14 | CN(C(=O)CCCCCNC(=O)NCc1ccc(Cl)cc1)c1ccccc1 [Compound 268, 6-(3-(4-chlorobenzyl)ureido)-N-methyl-N-phenylhexanamide] | 0.3 | 500 | 0.1 | 100 |  | 
15 | CN(C(=O)CCCCCNC(=O)NCc1cn[nH]c1)c1ccccc1F [Compound 287, 6-(3-((1H-pyrazol-4-yl)methyl)ureido)-N-(2-fluorophenyl)-N-methylhexanamide] | 0.1 | 4400 | 0.3 | 1000 |  | 
16 | CN(C(=O)CCCCCNC(=O)NCc1cnco1)c1ccccc1F [Compound 288, N-(2-fluorophenyl)-N-methyl-6-(3-(oxazol-5-ylmethyl)ureido)hexanamide] | 0.3 | 3700 | 0.3 | 800 |  | 
17 | [2H]C([2H])(CCCC1CCN(C(=O)c2ccccc2)CC1)NC(=O)NCc1cnco1 [Compound 293, 1-(4-(1-benzoylpiperidin-4-yl)butyl-1,1-d2)-3-(oxazol-5-ylmethyl)urea] | 0.1 | 1500 | 0.3 | 300 |  | 
18 | COc1ccc(CNC(=O)NCCCCC2CCN(C(=O)c3ccccc3C)CC2)cc1 [Compound 322, 1-(4-methoxybenzyl)-3-(4-(1-(2-methylbenzoyl)piperidin-4-yl)butyl)urea] | 0.1 | 2300 | 0.2 | 300 |  | 
19 | O=C(NCc1ccc(Cl)cc1)NC1CC2(CC(Cc3ccncc3)C2)C1 (centres unmarked) [Compound 329, 1-(4-chlorobenzyl)-3-(6-(pyridin-4-ylmethyl)spiro[3.3]heptan-2-yl)urea] | 62.5 | > 62500 | 0.1 | 100 |  | 
20 | COc1ccc(CNC(=O)NC2CC3(CC(Cc4ccncc4)C3)C2)cc1 (centres unmarked) [Compound 330, 1-(4-methoxybenzyl)-3-(6-(pyridin-4-ylmethyl)spiro[3.3]heptan-2-yl)urea] | 0.1 | 3900 | 0.5 | 8100 |  | 
21 | Cc1ncccc1CC1CC2(C1)CC(NC(=O)NCc1ccc(Cl)cc1)C2 (centres unmarked) [Compound 346, 1-(4-chlorobenzyl)-3-(6-((2-methylpyridin-3-yl)methyl)spiro[3.3]heptan-2-yl)urea] | 62.5 | > 62500 | 0.1 | 100 |  | 
